These results are taken from patent US10294246B2, “Substituted boronic acids and boronate esters as immunoproteasome inhibitors” (MERCK PATENT GMBH, priority 2014, dated 2019).

In test [1] the target is human constitutive proteasome (Beta5) (Homo sapiens (Human), UniProt P28074). Description: Determination of Beta5 activity (fluorescence intensity assay, Suc-LLVY-AMC). It counts as biochemical. The settings on record: purified human constitutive proteasome 1.25 nM, Suc-LLVY-AMC 40 μM. On the procedure:
Determination of Beta5 Activity:
Measurement of Beta5 inhibition is performed in 384 well format based on fluorescence intensity assay.
Purified human constitutive proteasome (1.25 nM) and serial diluted compounds in DMSO (range of concentrations from 30 μM to […]) or controls are incubated for 20 minutes at 25° C. in assay buffer containing 50 mM Tris pH 7.4, 0.03% SDS, 1 mM EDTA and 1% DMSO. The reaction is initiated by the addition of the fluorogenic peptide substrate, Suc-LLVY-AMC (Bachem 1-1395), at a concentration of 40 μM. After 60 minutes of incubation at 37° C., fluorescence intensity is measured at λex=350 nm and λem=450 nm with a fluorescence reader (Perkin Elmer Envision reader or equivalent).

In test [2] the target is human immunoproteasome (LMP7) (Homo sapiens (Human), UniProt P28062). Description: Determination of LMP7 activity (fluorescence intensity assay, Suc-LLVY-AMC). It counts as biochemical. To be noted: for Selectivity LMP7 vs Beta5: LMP7 versus Beta5; for IC50: purified human immunoproteasome 0.25 nM, Suc-LLVY-AMC 40 μM. On the procedure: Determination of LMP7 Activity:
Measurement of LMP7 inhibition is performed in 384 well format based on fluorescence intensity assay.
Purified human immunoproteasome (0.25 nM) and serial diluted compounds in DMSO (range of concentrations from 30 μM to […]) or controls are incubated for 20 minutes at 25° C. in assay buffer containing 50 mM Tris pH 7.4, 0.03% SDS, 1 mM EDTA and 1% DMSO. The reaction is initiated by the addition of the fluorogenic peptide substrate, Suc-LLVY-AMC (Bachem 1-1395), at a concentration of 40 μM. After 60 minutes of incubation at 37° C., fluorescence intensity is measured at λex=350 nm and λem=450 nm with a fluorescence reader (Perkin Elmer Envision reader or equivalent).

A word on the IC50: it is the concentration that inhibits the measured activity by half. Read a high IC50 as weaker potency. Consider `Cc1c(Cl)ccc2c(C[C@H](NC(=O)Cc3ccccc3)B(O)O)coc12` [Compound No. 126, [(1R)-2-(6-chloro-7-methyl-benzofuran-3-yl)-1-[(2-phenylacetyl)-amino]ethyl]boronic acid], for which the IC50 in test [1] lay in the range of 500 to 5000 nM. Further, in test [2], the “Selectivity LMP7 vs Beta5” value is reported as “+++++ (Selectivity ≥ 100)” and the IC50 is below 50 nM.

Compound `C[C@H](C(=O)N[C@@H](Cc1coc2ccccc12)B(O)O)c1ccccc1` [Compound No. 37, [(1R)-2-(benzofuran-3-yl)-1-[[(2S)-2-phenylpropanoyl]amino]ethyl]-boronic acid] showed an IC50 in test [1] of 500 to 5000 nM. Besides, the “Selectivity LMP7 vs Beta5” value in test [2] is “+++++ (Selectivity ≥ 100)”.

As to `Cc1cccc2c1OC[C@H]2C[C@H](NC(=O)Cc1ccccc1)B(O)O` [Compound No. 124, [(1R)-2-[(3S)-7-methyl-2,3-dihydrobenzofuran-3-yl]-1-[(2-phenylacetyl)amino]ethyl]boronic acid], in test [1], the IC50 was above 5000 nM. Besides, in test [2], the “Selectivity LMP7 vs Beta5” value was “+++++ (Selectivity ≥ 100)” and the half-inhibitory concentration (IC50) was below 50 nM.

For `N#Cc1ccccc1CC(=O)N[C@@H](Cc1coc2ccccc12)B(O)O` [Compound No. 90, [(1R)-2-(benzofuran-3-yl)-1-[[2-(2-cyanophenyl)acetyl]amino]ethyl]-boronic acid], in test [1], the 50% inhibitory concentration (IC50) fell in the range of 500 to 5000 nM. In test [2], the “Selectivity LMP7 vs Beta5” value is on record as “+++++ (Selectivity ≥ 100)” and the half-maximal inhibitory concentration (IC50) is below 50 nM.

For `O=C(COc1ncc(Cl)cc1Cl)N[C@@H](Cc1ccccc1)B(O)O` [Compound No. 1, [(1R)-1-[[2-[(3,5-dichloro-2-pyridyl)oxy]acetyl]amino]-2-phenyl-ethyl]boronic acid], in test [1], the IC50 is 50 to 500 nM. In test [2], the “Selectivity LMP7 vs Beta5” value is reported as “++ (10 ≤ Selectivity < 50)” and the IC50 is below 50 nM.

`O=C(COc1cccnc1)N[C@@H](Cc1coc2ccccc12)B(O)O` [Compound No. 11, [(1R)-2-(benzofuran-3-yl)-1-[[2-(3-pyridyloxy)acetyl]amino]ethyl]-boronic acid]: the IC50 was 50 to 500 nM in test [1] and below 50 nM in test [2]. In addition, the “Selectivity LMP7 vs Beta5” value in test [2] was “++ (10 ≤ Selectivity < 50)”.

As to `CC(=O)Nc1ccc(CC(=O)N[C@@H](Cc2ccc(C)cc2)B(O)O)cc1` [Compound No. 21, [(1R)-1-[[2-(4-acetamidophenyl)acetyl]amino]-2-(p-tolyl)ethyl]boronic acid], the IC50 in test [1] is above 5000 nM; in test [2] it was below 50 nM. Further, the “Selectivity LMP7 vs Beta5” value in test [2] is given as “++ (10 ≤ Selectivity < 50)”.

For the compound `CC(C)(O)c1ccc(CC(=O)N[C@@H](Cc2coc3ccccc23)B(O)O)cc1` [Compound No. 91, [(1R)-2-(benzofuran-3-yl)-1-[[2-[4-(1-hydroxy-1-methyl-ethyl)phenyl]acetyl]amino]ethyl]boronic acid], the IC50 was 50 to 500 nM in test [1] and below 50 nM in test [2]. The “Selectivity LMP7 vs Beta5” value in test [2] is recorded as “+++++ (Selectivity ≥ 100)”.

In the case of `CC(=O)Nc1cccc(CC(=O)N[C@@H](Cc2coc3ccccc23)B(O)O)c1` [Compound No. 32, [(1R)-1-[[2-(3-acetamidophenyl)acetyl]amino]-2-(benzofuran-3-yl)ethyl]boronic acid], the half-maximal inhibitory concentration (IC50) in test [1] lay within 50 to 500 nM. Further, the “Selectivity LMP7 vs Beta5” value in test [2] is recorded as “++++ (70 ≤ Selectivity < 100)”.

`COc1ccc(CC(=O)N[C@@H](C[C@@H]2COc3ccccc32)B(O)O)cc1` [Compound No. 114, [(1R)-2-[(3S)-2,3-dihydrobenzofuran-3-yl]-1-[[2-(4-methoxyphenyl)-acetyl]amino]ethyl]boronic acid]: in test [1], the 50% inhibitory concentration (IC50) was in the range of 500 to 5000 nM. In test [2], the “Selectivity LMP7 vs Beta5” value was “+++++ (Selectivity ≥ 100)” and the IC50 is below 50 nM.

`Cc1ccc2c(C[C@H](NC(=O)Cc3ccccc3)B(O)O)coc2c1C` [Compound No. 94, [(1R)-2-(6,7-dimethylbenzofuran-3-yl)-1-[(2-phenylacetyl)amino]ethyl]boronic acid]: in test [1], the IC50 was 500 to 5000 nM. In test [2], the “Selectivity LMP7 vs Beta5” value is “+++++ (Selectivity ≥ 100)” and the IC50 was below 50 nM.

`N#Cc1ccccc1CC(=O)N[C@@H](C[C@H]1COc2c(Cl)cccc21)B(O)O` [Compound No. 135, [(1R)-2-[(3R)-7-chloro-2,3-dihydrobenzofuran-3-yl]-1-[[2-(2-cyanophenyl)acetyl]amino]ethyl]boronic acid]: the IC50 in test [1] is above 5000 nM; in test [2], 50 to 500 nM. In test [2], the “Selectivity LMP7 vs Beta5” value is reported as “+++++ (Selectivity ≥ 100)”.

As to `C[C@H](C(=O)N[C@@H](Cc1coc2ccccc12)B(O)O)c1ccccc1C(=O)N(C)C` [Compound No. 96, [(1R)-2-(benzofuran-3-yl)-1-[[(2S)-2-[2-(dimethylcarbamoyl)phenyl]-propanoyl]amino]ethyl]boronic acid], in test [1], the IC50 is above 5000 nM. For the same compound, in test [2], the “Selectivity LMP7 vs Beta5” value was “+++++ (Selectivity ≥ 100)” and the IC50 fell in the range of 50 to 500 nM.

In the case of `N#Cc1ccccc1CC(=O)N[C@@H](C[C@@H]1COc2ccccc21)B(O)O` [Compound No. 105, [(1R)-1-[[2-(2-cyanophenyl)acetyl]amino]-2-[(3S)-2,3-dihydrobenzofuran-3-yl]ethyl]boronic acid], in test [1], the half-maximal inhibitory concentration (IC50) fell in the range of 500 to 5000 nM. In test [2], the “Selectivity LMP7 vs Beta5” value is reported as “+++++ (Selectivity ≥ 100)” and the IC50 was below 50 nM.

Turning to `O=C(Cc1ccccc1OCCCO)N[C@H](Cc1coc2ccccc12)B(O)O` [Compound No. 61, [(1S)-2-(benzofuran-3-yl)-1-[[2-[2-(3-hydroxypropoxy)phenyl]acetyl]-amino]ethyl]boronic acid], the half-inhibitory concentration (IC50) in test [1] is above 5000 nM; in test [2], 50 to 500 nM. Further, in test [2], the “Selectivity LMP7 vs Beta5” value is “+++++ (Selectivity ≥ 100)”.

In test [1], `COc1cccc(CC(=O)N[C@@H](Cc2coc3ccccc23)B(O)O)c1` [Compound No. 15, [(1R)-2-(benzofuran-3-yl)-1-[[2-(3-methoxyphenyl)acetyl]amino]ethyl]-boronic acid] came in with an IC50 of 50 to 500 nM. In test [2], the “Selectivity LMP7 vs Beta5” value is on record as “++++ (70 ≤ Selectivity < 100)” and the IC50 is below 50 nM.

With `CCOc1ccc(CC(=O)N[C@@H](C[C@@H]2COc3ccccc32)B(O)O)nc1` [Compound No. 131, [(1R)-2-[(3S)-2,3-dihydrobenzofuran-3-yl]-1-[[2-(5-ethoxy-2-pyridyl)acetyl]amino]ethyl]boronic acid], in test [1], the IC50 was 500 to 5000 nM. For the same compound, in test [2], the “Selectivity LMP7 vs Beta5” value is reported as “+++++ (Selectivity ≥ 100)” and the IC50 was below 50 nM.

In turn, `Cc1cccc2c(C[C@H](NC(=O)Cc3ccccc3)B(O)O)coc12` [Compound No. 75, [(1R)-2-(7-methylbenzofuran-3-yl)-1-[(2-phenylacetyl)amino]-ethyl]boronic acid] came in with an IC50 in test [1] of 500 to 5000 nM. Further, in test [2], the “Selectivity LMP7 vs Beta5” value is on record as “+++++ (Selectivity ≥ 100)” and the IC50 was below 50 nM.

Regarding `Cc1ccc(C[C@H](NC(=O)Cc2ccc(N3CCCC3=O)cc2)B(O)O)c(C)c1` [Compound No. 43, [(1R)-2-(2,4-dimethylphenyl)-1-[[2-[4-(2-oxopyrrolidin-1-yl)phenyl]-acetyl]amino]ethyl]boronic acid], the IC50 in test [1] was in the range of 500 to 5000 nM. In addition, in test [2], the “Selectivity LMP7 vs Beta5” value was “+++++ (Selectivity ≥ 100)” and the IC50 was below 50 nM.
